Results as given in ChEMBL document CHEMBL4145459, “Synthesis of (3S,4S,5S)-trihydroxylpiperidine derivatives as enzyme stabilizers to improve therapeutic enzyme activity in Fabry patient cell lines” (Eur J Med Chem, 2018).
Activity calls are given as the source filed them. The rule behind the calls is not given here.

Key:
Lymphocyte = experiment: Cytotoxicity against human lymphocytes at 100 uM after 48 to 72 hrs by AlamarBlue assay; format: cell-based
[1] = biological target: T1, Alpha-galactosidase A (Homo sapiens) (UniProt P06280); experiment: Inhibition of human recombinant alpha-galactosidase A at 100 uM using 4-MU-alpha-d-galactopyranoside as substrate by fluorescence assay relative to control
T1 sequence (whole entry): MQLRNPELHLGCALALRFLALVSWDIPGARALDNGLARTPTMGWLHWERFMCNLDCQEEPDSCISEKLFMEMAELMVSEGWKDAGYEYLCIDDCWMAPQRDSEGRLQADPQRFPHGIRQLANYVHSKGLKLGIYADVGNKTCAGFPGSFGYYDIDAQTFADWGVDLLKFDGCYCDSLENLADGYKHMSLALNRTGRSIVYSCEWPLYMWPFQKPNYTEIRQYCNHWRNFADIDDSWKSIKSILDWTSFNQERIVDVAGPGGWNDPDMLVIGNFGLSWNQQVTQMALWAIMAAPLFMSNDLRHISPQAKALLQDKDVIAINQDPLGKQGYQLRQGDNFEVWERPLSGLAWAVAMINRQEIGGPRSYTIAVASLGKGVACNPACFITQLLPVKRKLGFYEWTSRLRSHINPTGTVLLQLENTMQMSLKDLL

[2] = biological target: T2, Beta-galactosidase (Homo sapiens) (UniProt P16278); experiment: Inhibition of human lymphocyte beta-galactosidase at 100 uM using 4-MU-glycopyranoside as substrate by spectrophotometric analysis
T2 sequence (whole entry): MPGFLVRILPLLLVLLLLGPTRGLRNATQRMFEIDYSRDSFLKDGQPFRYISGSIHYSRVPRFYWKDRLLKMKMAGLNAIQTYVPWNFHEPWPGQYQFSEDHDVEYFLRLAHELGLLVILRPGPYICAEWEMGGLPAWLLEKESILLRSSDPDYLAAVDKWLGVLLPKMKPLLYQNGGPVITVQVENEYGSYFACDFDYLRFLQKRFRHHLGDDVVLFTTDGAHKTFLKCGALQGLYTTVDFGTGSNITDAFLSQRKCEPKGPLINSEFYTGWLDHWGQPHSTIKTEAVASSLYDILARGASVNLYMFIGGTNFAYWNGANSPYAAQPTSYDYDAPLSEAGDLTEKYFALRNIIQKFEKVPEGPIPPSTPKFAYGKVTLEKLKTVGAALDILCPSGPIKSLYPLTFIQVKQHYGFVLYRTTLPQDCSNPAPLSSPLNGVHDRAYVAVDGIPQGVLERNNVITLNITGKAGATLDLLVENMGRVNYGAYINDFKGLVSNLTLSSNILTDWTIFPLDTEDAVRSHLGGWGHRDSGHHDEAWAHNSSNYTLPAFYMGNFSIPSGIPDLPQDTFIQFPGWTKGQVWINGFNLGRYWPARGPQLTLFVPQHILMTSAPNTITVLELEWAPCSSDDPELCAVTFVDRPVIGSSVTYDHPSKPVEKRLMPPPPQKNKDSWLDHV

[3] = biological target: Alpha-galactosidase (Coffea arabica) (UniProt Q42656); experiment: Inhibition of green coffee beans alpha-galactosidase at 100 uM using 4-MU-glycopyranoside as substrate by spectrophotometric analysis relative to control
[4] = biological target: T3, Alpha-glucosidase (Geobacillus stearothermophilus) (UniProt P94451); experiment: Inhibition of Bacillus stearothermophilus alpha-glucosidase at 100 uM using 4-MU-glycopyranoside as substrate by spectrophotometric analysis
T3 sequence (whole entry): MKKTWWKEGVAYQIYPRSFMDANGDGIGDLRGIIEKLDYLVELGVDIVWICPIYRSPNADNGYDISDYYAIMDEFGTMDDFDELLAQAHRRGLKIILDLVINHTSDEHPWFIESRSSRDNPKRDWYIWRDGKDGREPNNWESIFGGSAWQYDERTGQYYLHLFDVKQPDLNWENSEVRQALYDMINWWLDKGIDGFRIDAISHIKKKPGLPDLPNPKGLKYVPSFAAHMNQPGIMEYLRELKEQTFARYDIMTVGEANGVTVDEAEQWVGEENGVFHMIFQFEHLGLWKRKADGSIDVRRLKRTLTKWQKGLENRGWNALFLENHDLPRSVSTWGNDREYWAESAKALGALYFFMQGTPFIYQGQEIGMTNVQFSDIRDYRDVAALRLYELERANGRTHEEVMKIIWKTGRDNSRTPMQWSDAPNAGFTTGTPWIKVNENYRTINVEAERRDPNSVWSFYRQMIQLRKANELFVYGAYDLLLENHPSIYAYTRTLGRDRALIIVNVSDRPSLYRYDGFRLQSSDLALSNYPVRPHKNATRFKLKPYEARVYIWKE

[5] = biological target: T4, Lysosomal acid glucosylceramidase (Homo sapiens) (UniProt P04062); experiment: Inhibition of human recombinant acid beta-glucosidase at 100 uM using 4-MU-glycopyranoside as substrate by spectrophotometric analysis
T4 sequence (whole entry): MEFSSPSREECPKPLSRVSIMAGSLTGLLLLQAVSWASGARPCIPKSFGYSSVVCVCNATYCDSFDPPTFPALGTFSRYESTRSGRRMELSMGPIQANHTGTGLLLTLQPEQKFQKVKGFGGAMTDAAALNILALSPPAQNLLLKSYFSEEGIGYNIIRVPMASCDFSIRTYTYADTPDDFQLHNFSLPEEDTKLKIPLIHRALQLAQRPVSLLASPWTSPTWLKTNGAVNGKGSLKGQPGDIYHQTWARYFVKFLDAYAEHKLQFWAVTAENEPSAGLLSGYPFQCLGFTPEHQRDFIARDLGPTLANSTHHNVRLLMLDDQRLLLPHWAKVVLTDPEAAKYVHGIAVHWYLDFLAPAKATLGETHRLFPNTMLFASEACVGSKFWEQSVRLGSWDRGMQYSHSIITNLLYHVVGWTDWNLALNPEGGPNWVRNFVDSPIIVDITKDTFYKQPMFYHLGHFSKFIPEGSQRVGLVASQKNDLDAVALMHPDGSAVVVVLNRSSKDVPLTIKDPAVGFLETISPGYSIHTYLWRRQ

[6] = biological target: Lysosomal alpha-glucosidase (Homo sapiens) (UniProt P10253); experiment: Inhibition of human recombinant acid alpha-glucosidase at 100 uM using 4-MU-glycopyranoside as substrate by spectrophotometric analysis
[7] = biological target: T5, Lysosomal alpha-mannosidase (Homo sapiens) (UniProt O00754); experiment: Inhibition human recombinant acid alpha-mannosidase at 100 uM using p-nitrophenyl-glycopyranoside as substrate by spectrophotometric analysis
T5 sequence (whole entry): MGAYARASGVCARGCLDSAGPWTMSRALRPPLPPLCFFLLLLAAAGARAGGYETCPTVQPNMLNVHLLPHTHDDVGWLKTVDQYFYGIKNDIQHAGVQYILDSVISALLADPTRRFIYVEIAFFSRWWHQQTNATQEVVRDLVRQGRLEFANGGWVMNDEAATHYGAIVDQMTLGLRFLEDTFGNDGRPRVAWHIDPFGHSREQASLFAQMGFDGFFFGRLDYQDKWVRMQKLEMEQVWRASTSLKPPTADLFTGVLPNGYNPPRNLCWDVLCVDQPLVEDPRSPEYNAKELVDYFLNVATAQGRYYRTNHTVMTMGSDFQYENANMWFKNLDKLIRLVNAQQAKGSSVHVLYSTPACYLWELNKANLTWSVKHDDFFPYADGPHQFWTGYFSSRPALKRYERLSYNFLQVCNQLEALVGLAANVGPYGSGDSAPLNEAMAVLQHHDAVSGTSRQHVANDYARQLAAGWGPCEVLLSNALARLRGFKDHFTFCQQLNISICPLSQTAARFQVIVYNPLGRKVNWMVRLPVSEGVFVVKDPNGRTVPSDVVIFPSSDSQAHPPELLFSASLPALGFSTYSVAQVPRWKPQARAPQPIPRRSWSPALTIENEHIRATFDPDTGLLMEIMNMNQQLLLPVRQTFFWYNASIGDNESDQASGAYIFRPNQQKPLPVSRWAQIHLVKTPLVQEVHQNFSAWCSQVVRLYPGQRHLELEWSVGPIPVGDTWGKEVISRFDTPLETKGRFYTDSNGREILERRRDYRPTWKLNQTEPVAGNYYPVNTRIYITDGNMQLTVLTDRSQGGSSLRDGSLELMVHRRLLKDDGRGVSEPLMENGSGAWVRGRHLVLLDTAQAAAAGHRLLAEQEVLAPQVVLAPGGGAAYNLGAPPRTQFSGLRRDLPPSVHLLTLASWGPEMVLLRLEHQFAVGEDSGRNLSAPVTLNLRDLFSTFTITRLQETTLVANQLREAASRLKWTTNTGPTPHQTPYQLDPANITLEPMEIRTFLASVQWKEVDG

Chain of Alpha-galactosidase (Coffea arabica) (Q42656 16-378 limits assumed): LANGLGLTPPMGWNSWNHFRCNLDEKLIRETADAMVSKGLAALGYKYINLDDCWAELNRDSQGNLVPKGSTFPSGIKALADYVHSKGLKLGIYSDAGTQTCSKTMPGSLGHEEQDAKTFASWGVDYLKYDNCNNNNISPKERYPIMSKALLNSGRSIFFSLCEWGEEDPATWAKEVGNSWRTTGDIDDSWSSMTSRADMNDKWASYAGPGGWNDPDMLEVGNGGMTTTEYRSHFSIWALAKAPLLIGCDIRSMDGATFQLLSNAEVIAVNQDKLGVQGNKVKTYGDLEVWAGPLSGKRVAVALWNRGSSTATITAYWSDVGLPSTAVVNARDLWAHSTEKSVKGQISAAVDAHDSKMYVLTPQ

For `COc1ccc(OC)c(/C=C/C(=O)NC[C@H]2NC[C@H](O)[C@@H](O)[C@H]2O)c1`, the Activity (Lymphocyte) was “Non-Toxic”, the inhibition [1] was 99% and the inhibition [2] was “inactive”. The inhibition [3] was 57%, the inhibition [4] was “inactive” and the inhibition [5] was “inactive”. The inhibition [6] was “inactive” and the inhibition [7] was “inactive”.
